T/C data for 19 molecules are collected here from PubChem BioAssay AID328 (DTP/NCI, 2004).

The assay relates to BDF1 mice, P388 leukemia ip, median survival T/C. The assay is described as follows: NCI In Vivo Anticancer Drug Screen. Data for tumor model P388 Leukemia (intraperitoneal) in B6D2F1 (BDF1) mice. The following applies: endpoint: median survival time, higher = longer survival. A digest of the protocol: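 Antitumour effect was judged in vivo: survival in drug-treated mice, normalised to that of vehicle-dosed controls, gives the reported T/C.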

Where [1] appears, read: dose: 100.0 mg/kg/injection, schedule: Q04DX003 (ip), vehicle: Klucel (hydroxypropylcellulose) (HPC).
Where [2] appears, read: dose: 200.0 mg/kg/injection, schedule: Q04DX003 (ip), vehicle: Klucel (hydroxypropylcellulose) (HPC).
Where [3] appears, read: dose: 100.0 mg/kg/injection, schedule: Q04DX003 (ip), vehicle: saline with Tween-80.
Setting [4] is: dose: 200.0 mg/kg/injection, schedule: Q04DX003 (ip), vehicle: saline with Tween-80.
[5] abbreviates: dose: 400.0 mg/kg/injection, schedule: Q04DX003 (ip), vehicle: saline with Tween-80.
[6] abbreviates: dose: 50.0 mg/kg/injection, schedule: Q01DX009 (ip), vehicle: Klucel (hydroxypropylcellulose) (HPC).
Setting [7] is: dose: 400.0 mg/kg/injection, schedule: Q04DX003 (ip), vehicle: Klucel (hydroxypropylcellulose) (HPC).
The mark [8] stands for this setting: dose: 25.0 mg/kg/injection, schedule: Q01DX009 (ip), vehicle: Klucel (hydroxypropylcellulose) (HPC).
The mark [9] stands for this setting: dose: 100.0 mg/kg/injection, schedule: Q01DX009 (ip), vehicle: Klucel (hydroxypropylcellulose) (HPC).
[10] abbreviates: dose: 100.0 mg/kg/injection, schedule: Q01DX009 (ip), vehicle: saline with Tween-80.
[11] abbreviates: dose: 200.0 mg/kg/injection, schedule: Q01DX009 (ip), vehicle: saline with Tween-80.
Where [12] appears, read: dose: 50.0 mg/kg/injection, schedule: Q01DX009 (ip), vehicle: saline with Tween-80.

Several values for one entry are separate records, joined by “and”; a condition that tells them apart may be missing. Equal entries are not always repeated. Inconclusive results and toxic doses are left out.

Regarding `O=C(O)CCSSCCC(=O)O`, the T/C runs as follows: under setting [1], 95 % of control; under setting [2], 100 % of control.

For the molecule `C=CCc1ccccc1C=O`, the T/C reads like this: under setting [3], 97 % of control; under setting [4], 95 % of control; under setting [5], 97 % of control.

On to `Cc1cc(N)c2cc(NC(=O)CCCCCCCCC(=O)Nc3ccc4nc(C)cc(N)c4c3)ccc2n1`, for which the T/C was 108 % of control (dose: 5.5 mg/kg/injection, schedule: Q01DX009 (ip), vehicle: Klucel (hydroxypropylcellulose) (HPC)); 121 % of control (dose: 8.2 mg/kg/injection, schedule: Q01DX009 (ip), vehicle: Klucel (hydroxypropylcellulose) (HPC)); 91 % of control (dose: 8.3 mg/kg/injection, schedule: Q04DX003 (ip), vehicle: Klucel (hydroxypropylcellulose) (HPC)); 104 % of control (dose: 12.0 mg/kg/injection, schedule: Q04DX003 (ip), vehicle: Klucel (hydroxypropylcellulose) (HPC)); 150 % of control (dose: 45.0 mg/kg/injection, schedule: Q04DX003 (ip), vehicle: Klucel (hydroxypropylcellulose) (HPC)); 186 % of control under setting [6]. In addition, the T/C was 168 % of control (dose: 80.0 mg/kg/injection, schedule: Q04DX003 (ip), vehicle: Klucel (hydroxypropylcellulose) (HPC)); 172 % of control (dose: 100.0 mg/kg/injection, schedule: Q04DX003 (ip), vehicle: other); 172 % of control (dose: 120.0 mg/kg/injection, schedule: Q04DX003 (ip), vehicle: Klucel (hydroxypropylcellulose) (HPC)); 177 % of control (dose: 180.0 mg/kg/injection, schedule: Q04DX003 (ip), vehicle: Klucel (hydroxypropylcellulose) (HPC)); 150 % of control under setting [2]; 181 % of control (dose: 200.0 mg/kg/injection, schedule: Q04DX003 (ip), vehicle: other). The T/C reads like this: (dose: 264.0 mg/kg/injection, schedule: Q04DX003 (ip), vehicle: Klucel (hydroxypropylcellulose) (HPC)) 227 % of control; (dose: 400.0 mg/kg/injection, schedule: Q01DX009 (ip), vehicle: Klucel (hydroxypropylcellulose) (HPC)) 160 % of control; under setting [7], 261 % of control and 160 % of control; (dose: 400.0 mg/kg/injection, schedule: Q04DX003 (ip), vehicle: other) 186 % of control.

Regarding `CSc1nnnn1-c1ccccc1`, the T/C by setting is: (dose: 16.5 mg/kg/injection, schedule: Q01DX009 (ip), vehicle: Klucel (hydroxypropylcellulose) (HPC)) 104 % of control; under setting [8], 95 % of control; (dose: 37.5 mg/kg/injection, schedule: Q01DX009 (ip), vehicle: Klucel (hydroxypropylcellulose) (HPC)) 104 % of control; under setting [6], 100 % of control; under setting [9], 100 % of control.

For `CC1(C)CC(=O)N/C1=C\C1NC(=O)CC1(C)C` (stereo not drawn), the T/C is, setting by setting: under setting [10], 104 % of control; under setting [11], 109 % of control.

As to `OCCNCCNCCO`, the T/C (dose: 50.0 mg/kg/injection, schedule: Q01DX001 (ip), vehicle: saline) was 100 % of control; the T/C (dose: 100.0 mg/kg/injection, schedule: Q01DX001 (ip), vehicle: saline) is 104 % of control; the T/C (dose: 200.0 mg/kg/injection, schedule: Q01DX001 (ip), vehicle: saline) was 104 % of control.

`O=Cc1ccccc1B(O)O`: the T/C reads like this: under setting [6], 108 % of control and 109 % of control; (dose: 50.0 mg/kg/injection, schedule: Q04DX003 (ip), vehicle: Klucel (hydroxypropylcellulose) (HPC)) 92 % of control; under setting [9], 108 % of control and 118 % of control; under setting [1], 100 % of control; under setting [2], 107 % of control.

As to `CC1C(=O)COCC1=O`, the T/C is 102 % of control (dose: 100.0 mg/kg/injection, schedule: Q01DX001 (ip), vehicle: saline with Tween-80); 101 % of control (dose: 200.0 mg/kg/injection, schedule: Q01DX001 (ip), vehicle: saline with Tween-80); 98 % of control (dose: 400.0 mg/kg/injection, schedule: Q01DX001 (ip), vehicle: saline with Tween-80).

Take `N#Cc1nc2ccccc2nc1C#N`: the T/C runs as follows: (dose: 12.5 mg/kg/injection, schedule: Q01DX009 (ip), vehicle: Klucel (hydroxypropylcellulose) (HPC)) 106 % of control; under setting [8], 99 % of control.

On to `Nc1nc(SCc2ccccc2Cl)c2ncn(C3OC(CO)C(O)C3O)c2n1` (stereo not drawn), for which the T/C was 105 % of control (dose: 100.0 mg/kg/injection, schedule: Q01DX009 (ip), vehicle: saline); 100 % of control under setting [1]; 90 % of control (dose: 200.0 mg/kg/injection, schedule: Q01DX009 (ip), vehicle: saline); 118 % of control under setting [2]; 118 % of control under setting [7].

For `CC(C1CCC/C(=N\NC(N)=O)C1)[N+](=O)[O-]` (stereo not drawn), the T/C reads like this: (dose: 0.19 mg/kg/injection, schedule: Q01DX009 (ip), vehicle: saline with Tween-80) 103 % of control; (dose: 0.39 mg/kg/injection, schedule: Q01DX009 (ip), vehicle: saline with Tween-80) 101 % of control and 102 % of control and 119 % of control; (dose: 0.78 mg/kg/injection, schedule: Q01DX009 (ip), vehicle: saline with Tween-80) 95 % of control and 99 % of control; (dose: 1.56 mg/kg/injection, schedule: Q01DX009 (ip), vehicle: saline with Tween-80) 96 % of control and 100 % of control and 109 % of control; (dose: 3.12 mg/kg/injection, schedule: Q01DX009 (ip), vehicle: saline with Tween-80) 93 % of control and 108 % of control and 113 % of control; (dose: 6.25 mg/kg/injection, schedule: Q01DX009 (ip), vehicle: saline with Tween-80) 92 % of control and 94 % of control.

`CC(C)CCCC(C)C1CCC2C3C(=O)C=C4CC(O)CCC4(C)C3CCC12C` (stereo not drawn): the T/C was 109 % of control (dose: 100.0 mg/kg/injection, schedule: Q04DX003 (sc), vehicle: steriod suspending solution); 104 % of control (dose: 200.0 mg/kg/injection, schedule: Q04DX003 (sc), vehicle: steriod suspending solution); 109 % of control (dose: 400.0 mg/kg/injection, schedule: Q04DX003 (sc), vehicle: steriod suspending solution).

For `COc1ccc(C(=O)C/C(=N\N(C(=O)c2ccc(OC)cc2)c2ccccc2)c2ccc(OC)cc2)cc1`, the T/C by setting is: under setting [12], 104 % of control; under setting [10], 100 % of control; under setting [11], 100 % of control.

Take `Nc1cc(S(=O)(=O)c2ccc(O)c(N)c2)ccc1O`: the T/C under setting [10] was 104 % of control; the T/C under setting [3] is 100 % of control; the T/C under setting [11] was 108 % of control; the T/C under setting [4] was 95 % of control; the T/C (dose: 400.0 mg/kg/injection, schedule: Q01DX009 (ip), vehicle: saline with Tween-80) was 87 % of control; the T/C under setting [5] was 87 % of control.

Regarding `COC(=O)c1ccc(Cn2ccc(=O)n(Cc3ccc(C(=O)OC)cc3)c2=O)cc1`, the T/C was 100 % of control under setting [3], 100 % of control under setting [4] and 100 % of control under setting [5].

With `CCCCCCCCCCC(O)CCCCCCCCCC`, the T/C is 100 % of control under setting [12], 95 % of control under setting [10] and 90 % of control under setting [11].

In the case of `CC1(C)N=C(N)N=C(N)N1c1cccc(CCCCc2ccc(S(=O)(=O)F)cc2Cl)c1`, the T/C reads like this: (dose: 3.13 mg/kg/injection, schedule: Q01DX009 (ip), vehicle: saline sonified) 109 % of control; (dose: 4.0 mg/kg/injection, schedule: Q01DX009 (ip), vehicle: saline) 116 % of control; (dose: 4.0 mg/kg/injection, schedule: Q04DX003 (ip), vehicle: saline with Tween-80) 100 % of control; (dose: 6.0 mg/kg/injection, schedule: Q04DX003 (ip), vehicle: saline with Tween-80) 113 % of control; (dose: 6.25 mg/kg/injection, schedule: Q01DX009 (ip), vehicle: saline) 116 % of control; (dose: 9.0 mg/kg/injection, schedule: Q04DX003 (ip), vehicle: saline with Tween-80) 118 % of control. Under “dose: 9.4 mg/kg/injection, schedule: Q01DX009 (ip), vehicle: saline”, the T/C was 116 % of control.

On to `COc1ccc(OC)c(NC(=O)Sc2c(Cl)c(Cl)nc(Cl)c2Cl)c1`, for which the T/C was 123 % of control under setting [8]; 124 % of control under setting [9]; 123 % of control (dose: 200.0 mg/kg/injection, schedule: Q01DX009 (ip), vehicle: Klucel (hydroxypropylcellulose) (HPC)).

Consider `COC(OC)C12CC(OC(=O)N1)C(C)CO2` (stereo not drawn), for which the T/C reads like this: (dose: 50.0 mg/kg/injection, schedule: Q04DX003 (ip), vehicle: saline) 98 % of control; (dose: 100.0 mg/kg/injection, schedule: Q04DX003 (ip), vehicle: saline) 106 % of control; (dose: 200.0 mg/kg/injection, schedule: Q04DX003 (ip), vehicle: saline) 96 % of control.
